From PubChem BioAssay AID330 (DTP/NCI, 2004)
“And” between values parts separate entries of the source, which are not always exact repeats. Equal values may be shown once. Inconclusive results and toxic doses are left out.

Tested on: P388 leukemia ip, CD2F1 mice, survival T/C
Assay: NCI In Vivo Anticancer Drug Screen. Data for tumor model P388 Leukemia (intraperitoneal) in CD2F1 (CDF1) mice
Conditions: endpoint: median survival time, higher = longer survival
How it was run: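 Mice carrying the transplanted tumor received test compound or vehicle. Survival was recorded in each group, and the value is the treated-group measurement divided by that of the vehicle-treated control group.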

[1] = dose: 25.0 mg/kg/injection, schedule: Q04DX003 (ip), vehicle: Klucel (hydroxypropylcellulose) (HPC)
[2] = dose: 50.0 mg/kg/injection, schedule: Q04DX003 (ip), vehicle: Klucel (hydroxypropylcellulose) (HPC)
[3] = dose: 12.5 mg/kg/injection, schedule: Q01DX009 (ip), vehicle: saline with Tween-80
[4] = dose: 25.0 mg/kg/injection, schedule: Q01DX009 (ip), vehicle: saline with Tween-80
[5] = dose: 100.0 mg/kg/injection, schedule: Q01DX009 (ip), vehicle: saline with Tween-80
[6] = dose: 100.0 mg/kg/injection, schedule: Q04DX003 (ip), vehicle: saline with Tween-80
[7] = dose: 200.0 mg/kg/injection, schedule: Q01DX009 (ip), vehicle: saline with Tween-80
[8] = dose: 200.0 mg/kg/injection, schedule: Q04DX003 (ip), vehicle: saline with Tween-80
[9] = dose: 400.0 mg/kg/injection, schedule: Q01DX009 (ip), vehicle: saline with Tween-80
[10] = dose: 400.0 mg/kg/injection, schedule: Q04DX003 (ip), vehicle: saline with Tween-80
[11] = dose: 25.0 mg/kg/injection, schedule: Q01DX005 (ip), vehicle: Klucel (hydroxypropylcellulose) (HPC)
[12] = dose: 50.0 mg/kg/injection, schedule: Q01DX005 (ip), vehicle: Klucel (hydroxypropylcellulose) (HPC)
[13] = dose: 100.0 mg/kg/injection, schedule: Q01DX005 (ip), vehicle: Klucel (hydroxypropylcellulose) (HPC)
[14] = dose: 200.0 mg/kg/injection, schedule: Q01DX005 (ip), vehicle: Klucel (hydroxypropylcellulose) (HPC)
[15] = dose: 100.0 mg/kg/injection, schedule: Q01DX009 (ip), vehicle: Klucel (hydroxypropylcellulose) (HPC)
[16] = dose: 50.0 mg/kg/injection, schedule: Q01DX009 (ip), vehicle: saline with Tween-80
[17] = dose: 30.0 mg/kg/injection, schedule: Q01DX005 (ip), vehicle: saline
[18] = dose: 50.0 mg/kg/injection, schedule: Q01DX005 (ip), vehicle: saline with Tween-80
[19] = dose: 100.0 mg/kg/injection, schedule: Q01DX005 (ip), vehicle: saline with Tween-80
[20] = dose: 200.0 mg/kg/injection, schedule: Q01DX005 (ip), vehicle: saline with Tween-80

Structure (SMILES): c1cc[c]([Ge]([c]2ccccc2)[c]2ccccc2)cc1
- T/C (dose: 60.0 mg/kg/injection, schedule: Q01DX005 (ip), vehicle: saline with Tween-80): 91 % of control
- T/C (dose: 120.0 mg/kg/injection, schedule: Q01DX005 (ip), vehicle: saline with Tween-80): 100 % of control
- T/C (dose: 240.0 mg/kg/injection, schedule: Q01DX005 (ip), vehicle: saline with Tween-80): 97 % of control

Structure (SMILES): CCn1nnnc1-c1ccccc1
- T/C (dose: 100.0 mg/kg/injection, schedule: Q01DX001 (ip), vehicle: Klucel (hydroxypropylcellulose) (HPC)): 91 % of control
- T/C (dose: 200.0 mg/kg/injection, schedule: Q01DX001 (ip), vehicle: Klucel (hydroxypropylcellulose) (HPC)): 88 % of control
- T/C (dose: 400.0 mg/kg/injection, schedule: Q01DX001 (ip), vehicle: Klucel (hydroxypropylcellulose) (HPC)): 91 % of control

Structure (SMILES): Cc1c(C)c(=O)c2cc3c(=O)ccc(=O)c3cc2c1=O
- T/C (dose: 12.5 mg/kg/injection, schedule: Q04DX003 (ip), vehicle: Klucel (hydroxypropylcellulose) (HPC)): 101 % of control
- T/C [1]: 96 % of control
- T/C [2]: 103 % of control

Structure (SMILES): COC(=O)c1nnn(-c2ccc(Cl)cc2C)c1C(=O)c1ccc(OC)cc1
- T/C (dose: 60.0 mg/kg/injection, schedule: Q01DX005 (ip), vehicle: Klucel + Tween-80): 102 % of control
- T/C (dose: 120.0 mg/kg/injection, schedule: Q01DX005 (ip), vehicle: Klucel + Tween-80): 108 % of control
- T/C (dose: 240.0 mg/kg/injection, schedule: Q01DX005 (ip), vehicle: Klucel + Tween-80): 93 % of control

Structure (SMILES): Fc1ccc2c(c1)C(Br)c1ccccc1-2 (configuration not stated)
- T/C (dose: 6.25 mg/kg/injection, schedule: Q01DX009 (ip), vehicle: saline with Tween-80): 104 % of control
- T/C [3]: 100 % of control
- T/C [4]: 109 % of control

Structure (SMILES): CCC(=O)OC1CCC2C3CCC4=CC(=O)CCC4(C)C3CCC12C (configuration not stated)
- T/C [5]: 95 % of control
- T/C [6]: 95 % of control
- T/C [7]: 104 % of control
- T/C [8]: 100 % of control
- T/C [9]: 95 % of control
- T/C [10]: 100 % of control

Structure (SMILES): Cc1cc(CC(O)(c2ccccc2)c2ccccc2)nc2[nH]c(=O)ccc12
- T/C [11]: 97 % of control
- T/C [12]: 103 % of control
- T/C [13]: 98 % of control
- T/C [14]: 96 % of control

Structure (SMILES): O=C(Nc1ccc(Br)cc1)c1ccc(Cl)c(Cl)c1
- T/C [15]: 116 % of control
- T/C (dose: 200.0 mg/kg/injection, schedule: Q01DX009 (ip), vehicle: Klucel (hydroxypropylcellulose) (HPC)): 119 % of control
- T/C (dose: 400.0 mg/kg/injection, schedule: Q01DX009 (ip), vehicle: Klucel (hydroxypropylcellulose) (HPC)): 117 % of control

Structure (SMILES): CSC1(C)C(=O)Nc2cc([N+](=O)[O-])ccc21 (configuration not stated)
- T/C [4]: 100 % of control
- T/C [16]: 99 % of control
- T/C [5]: 113 % of control

Structure (SMILES): CC(=O)C1(C)Nc2cccc3cccc(c23)N1
- T/C [12]: 100 % of control
- T/C [13]: 96 % of control
- T/C [14]: 101 % of control

Structure (SMILES): FC(F)(F)C1(C(F)(F)F)[O][Sb]([c]2ccccc2)([c]2ccccc2)([c]2ccccc2)[O]1
- T/C (dose: 50.0 mg/kg/injection, schedule: Q01DX009 (ip), vehicle: Klucel (hydroxypropylcellulose) (HPC)): 100 % of control
- T/C [15]: 101 % of control

Structure (SMILES): CCCC(=O)CC(=O)Nc1ccccc1
- T/C (dose: 100.0 mg/kg/injection, schedule: Q01DX001 (ip), vehicle: saline): 109 % of control
- T/C (dose: 200.0 mg/kg/injection, schedule: Q01DX001 (ip), vehicle: saline): 118 % of control
- T/C (dose: 400.0 mg/kg/injection, schedule: Q01DX001 (ip), vehicle: saline): 118 % of control

Structure (SMILES): Clc1ccc2noc(-c3ccccc3)c2c1
- T/C [16]: 94 % of control
- T/C [5]: 91 % of control
- T/C [7]: 98 % of control
- T/C [9]: 94 % of control

Structure (SMILES): Cn1cnc2cc(N3CCOCC3)c(N)cc2c1=O
- T/C (dose: 100.0 mg/kg/injection, schedule: Q04DX002 (ip), vehicle: Klucel (hydroxypropylcellulose) (HPC)): 106 % of control
- T/C (dose: 200.0 mg/kg/injection, schedule: Q04DX002 (ip), vehicle: Klucel (hydroxypropylcellulose) (HPC)): 102 % of control
- T/C (dose: 400.0 mg/kg/injection, schedule: Q04DX002 (ip), vehicle: Klucel (hydroxypropylcellulose) (HPC)): 102 % of control

Structure (SMILES): Cc1c[nH]c2nc(C)n(-c3ccccc3F)c(=N)c12
- T/C [12]: 99 % of control
- T/C [13]: 91 % of control

Structure (SMILES): CN=C(c1ccc(NC(=O)c2ccc(C(=O)Nc3ccc(C(=NC)N(C)C4CCCCC4)cc3)cc2)cc1)N(C)C1CCCCC1
- T/C (dose: 0.78 mg/kg/injection, schedule: Q01DX005 (ip), vehicle: Klucel (hydroxypropylcellulose) (HPC)): 104 % of control
- T/C (dose: 1.56 mg/kg/injection, schedule: Q01DX005 (ip), vehicle: Klucel (hydroxypropylcellulose) (HPC)): 101 % of control
- T/C (dose: 3.12 mg/kg/injection, schedule: Q01DX005 (ip), vehicle: Klucel (hydroxypropylcellulose) (HPC)): 104 % of control

Structure (SMILES): Cc1ccc(C2(c3ccc(C)cc3)CCCCCC2=O)cc1
- T/C [11]: 87 % of control
- T/C [12]: 90 % of control
- T/C [13]: 97 % of control

Structure (SMILES): CC(C)SSC(=O)N1CCCC1C(=O)O (configuration not stated)
- T/C (dose: 15.0 mg/kg/injection, schedule: Q01DX005 (ip), vehicle: saline): 106 % of control
- T/C [17]: 98 % of control
- T/C (dose: 60.0 mg/kg/injection, schedule: Q01DX005 (ip), vehicle: saline): 98 % of control

Structure (SMILES): O=c1[nH]nc(-c2ccccc2)c2nc3ccccc3n12
- T/C (dose: 60.0 mg/kg/injection, schedule: Q01DX005 (ip), vehicle: Klucel (hydroxypropylcellulose) (HPC)): 88 % of control
- T/C (dose: 120.0 mg/kg/injection, schedule: Q01DX005 (ip), vehicle: Klucel (hydroxypropylcellulose) (HPC)): 87 % of control
- T/C (dose: 240.0 mg/kg/injection, schedule: Q01DX005 (ip), vehicle: Klucel (hydroxypropylcellulose) (HPC)): 88 % of control

Structure (SMILES): COC(=O)/C=C(/Nc1c(Cl)sc2ccccc2c1=O)C(=O)OC
- T/C [18]: 97 % of control
- T/C [19]: 97 % of control
- T/C [20]: 95 % of control

Structure (SMILES): COc1cc2cc3c4cc5c(cc4cc[n+]3c(C)c2cc1OC)OCO5 (tested in a mixture with another compound)
- T/C (dose: 15.0 mg/kg/injection, schedule: Q04DX003 (ip), vehicle: saline): 153 % of control

Structure (SMILES): Brc1ccc(CC[P+](c2ccccc2)(c2ccccc2)c2ccccc2)cc1
- T/C [1]: 109 % of control
- T/C [2]: 101 % of control
- T/C (dose: 100.0 mg/kg/injection, schedule: Q04DX003 (ip), vehicle: Klucel (hydroxypropylcellulose) (HPC)): 100 % of control and 105 % of control

Structure (SMILES): N#CCc1ccc(C(C#N)C(=O)CCC(=O)C(C#N)c2ccc(CC#N)cc2)cc1 (configuration not stated)
- T/C [18]: 100 % of control
- T/C [19]: 100 % of control

Structure (SMILES): CSC(=S)n1nc(-c2ccccc2)c(N=Nc2cccc(F)c2)c1-c1ccccc1
- T/C (dose: 100.0 mg/kg/injection, schedule: Q04DX002 (ip), vehicle: saline with Tween-80): 100 % of control
- T/C (dose: 200.0 mg/kg/injection, schedule: Q04DX002 (ip), vehicle: saline with Tween-80): 97 % of control
- T/C (dose: 400.0 mg/kg/injection, schedule: Q04DX002 (ip), vehicle: saline with Tween-80): 87 % of control

Structure (SMILES): O=S(=O)(c1ccc(F)cc1)C1C(c2ccccc2)=NNC1c1ccccc1Cl (configuration not stated)
- T/C [18]: 95 % of control
- T/C [19]: 95 % of control
- T/C [20]: 106 % of control

Structure (SMILES): CNC(=O)OCc1nc(SC)n(C)c1COC(=O)NC
- T/C (dose: 25.0 mg/kg/injection, schedule: Q01DX005 (ip), vehicle: saline): 160 % of control
- T/C [17]: 166 % of control and 172 % of control and 187 % of control
- T/C (dose: 34.0 mg/kg/injection, schedule: Q01DX005 (ip), vehicle: saline): 158 % of control and 164 % of control and 173 % of control
- T/C (dose: 50.0 mg/kg/injection, schedule: Q01DX005 (ip), vehicle: saline): 184 % of control and 193 % of control
- T/C (dose: 51.0 mg/kg/injection, schedule: Q01DX005 (ip), vehicle: saline): 186 % of control and 196 % of control and 200 % of control
- T/C (dose: 77.0 mg/kg/injection, schedule: Q01DX005 (ip), vehicle: saline): 188 % of control
- T/C (dose: 100.0 mg/kg/injection, schedule: Q01DX005 (ip), vehicle: saline): 236 % of control

Structure (SMILES): O=C(O)C(=O)O.[U]
- T/C [3]: 100 % of control

Structure (SMILES): c1cc2ccc3ccc[n+]4c3c2[n+](c1)CC4
- T/C (dose: 50.0 mg/kg/injection, schedule: Q01DX009 (ip), vehicle: saline): 103 % of control

Structure (SMILES): Oc1ccc2ccccc2c1N=Nc1ccc(Cl)cc1
- T/C [6]: 100 % of control
- T/C [8]: 100 % of control
- T/C [10]: 90 % of control
